The record followed here is patent US8383814B2, “Substituted tetrahydropyran spiro pyrrolidinone and piperidinone, preparation and therapeutic use thereof” (Sanofi, priority 2008, dated 2013).

The structures appear in SMILES notation.

Broadly, the Ki is a measure of affinity in units of concentration, obtained from inhibition or displacement.

Test [1] has as its target T1, rhesus (Macacca Mulatta) H3 receptor (Macaca mulatta, UniProt Q865E1).
T1 construct: pcDNA5/FRT/TO (Invitrogen) containing the rhesus monkey (Macacca Mulatta) 445 amino acid H3 receptor
Kind of test: Rhesus H3 radioligand binding assay ([3H]-methylhistamine displacement, WGA SPA beads). Details: species or system rhesus monkey (Macacca Mulatta). The note with it: [3H]-methylhistamine 2 nM; membranes of Flp-In T-REx 293 cells expressing rhesus H3; Cheng-Prusoff. The method, then:
(§1) Rhesus H3 membranes were prepared from the Flp-In T-REx 293 Cell Line (Invitrogen) stably transfected with pcDNA5/FRT/TO (Invitrogen) containing the rhesus monkey (Macacca Mulatta) 445 amino acid H3 receptor. (Genbank #AY231164). Stably transfected cultures were amplified in tissue culture flasks by standard tissue culture methods and induced to express rhesus H3 by exposure to 500 ng/ml tetracycline (Cellgro) for 24 hours. After induction, cells were dissociated from flasks utilizing Cell Stripper (Cellgro). Cells were centrifuged (1K×g, 5 min) and pellet frozen in an ethanol-dry ice bath to disrupt cell membranes. Frozen cell pellet was re-suspended in 5 mM HEPES (pH 7.4, Invitrogen) at 10 ml/1000 cm2 of harvested cells. The cell suspension was drawn through an 18 gauge needle (2-3×) followed by a 23 gauge needle (2-3×) to further disrupt cell membranes. The cell suspension was centrifuged (40K×g, 30 min). Cell membrane pellet was re-suspended in 5 mM HEPES (pH 7.4, Invitrogen) at a final protein concentration of 10 mg/ml. Rhesus H3 membranes were stored under liquid nitrogen prior to use in [3H]-Methylhistamine and GTP S radioligand binding assays.
Rhesus H3 radioligand binding assay was performed using rhesus H3 receptor membranes (prepared as described above), [3H]-Methylhistamine (Perkin Elmer) and WGA SPA beads (wheat germ agglutinin scintillation proximity assay) beads (Amersham). The assay was performed in 96-well Opti-Plates (Packard). Each reaction contained 50 μl rhesus H3 membranes (20-30 μg total protein), 50 μl WGA SPA beads (0.1 μg) and 50 μl of 83 Ci/mmol [^3H]-Methylhistamine (final concentration 2 nM) and 50 μl of tested compound. The compounds of this invention and/or vehicle were diluted with binding buffer from 10 mM DMSO stocks. Assay plates were sealed with TopSeal (Perkin Elmer) and mixed on shaker (25° C., 1 hour). Assay plates were read on TopCount scintillation counter (Packard). Results were analyzed by Hill transformation and Ki values were determined by Cheng-Prusoff equation.

In test [2] the test system is rhesus H3 receptor. Kind of test: GTPγS radioligand binding assay: inhibition of rhesus H3 constitutive functional activity in cell membranes (inverse agonism). The note with it: negative value = below basal level. The class given is biochemical, rhesus monkey (Macacca Mulatta). Set-up: concentration or dose not given beside the values. How it is done: as §1

T1 sequence (Q865E1 1-445): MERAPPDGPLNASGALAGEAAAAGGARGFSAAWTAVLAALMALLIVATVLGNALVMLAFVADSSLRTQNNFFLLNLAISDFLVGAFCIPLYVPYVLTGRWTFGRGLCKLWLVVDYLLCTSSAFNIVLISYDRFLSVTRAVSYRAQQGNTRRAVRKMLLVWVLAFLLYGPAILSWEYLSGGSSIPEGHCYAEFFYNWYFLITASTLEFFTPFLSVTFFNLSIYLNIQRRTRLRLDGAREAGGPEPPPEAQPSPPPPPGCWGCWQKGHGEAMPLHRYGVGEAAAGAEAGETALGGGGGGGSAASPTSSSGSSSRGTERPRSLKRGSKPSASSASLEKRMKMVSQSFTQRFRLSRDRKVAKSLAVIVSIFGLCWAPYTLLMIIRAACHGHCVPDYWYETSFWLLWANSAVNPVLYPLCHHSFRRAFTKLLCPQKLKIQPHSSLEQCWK

In the case of `CCc1cc(N2CCC(N3CCCC3COC)CC2)ccc1N1CCC2(CCOCC2)C1=O` (stereo not drawn) [Example 25, 2-{2-Ethyl-4-[4-(2-methoxymethyl-pyrrolidin-1-yl)piperidin-1-yl]-phenyl}-8-oxa-2-aza-spiro[4.5]decan-1-one], in test [1], affinity was put at a Ki of 4.9 nM. Moreover, the “Inverse Agonism: % inhibition of Basal GTPγS binding in Rhesus H3” value (“Inverse Agonism: % inhibition” for short) in test [2] is −13%.

In the case of `C[C@H]1CCCN1[C@H]1CCN(c2ccc(N3CCCC4(CCOCC4)C3=O)c(F)c2)C1` [Example 27, 2-[2-Fluoro-4-((2S,3′S)-2-methyl-[1,3′]bipyrrolidinyl-1′-yl)-phenyl]-9-oxa-2-aza-spiro[5.5]undecan-1-one], the affinity in test [1], expressed as Ki, was 0.7 nM. Also, the “Inverse Agonism: % inhibition” value in test [2] is on record as −20%.

Compound `Cc1cc(N2CC[C@H](N3CCC[C@H]3C)C2)ccc1N1CCCC2(CCOCC2)C1=O` [Example 28, 2-[2-Methyl-4-((2R,3′S)-2-methyl-[1,3′]bipyrrolidinyl-1′-yl)-phenyl]-9-oxa-2-aza-spiro[5.5]undecan-1-one] returned a Ki in test [1] of 13 nM. In test [2], the “Inverse Agonism: % inhibition” value is reported as −13%.

`Cc1cc(N2CC[C@@H](N3CCC[C@H]3C)C2)ccc1N1CCC2(CCOCC2)C1=O` [Example 29, 2-[2-Methyl-4-((2R,3′R)-2-methyl-[1,3′]bipyrrolidinyl-1′-yl)-phenyl]-8-oxa-2-aza-spiro[4.5]decan-1-one] registered a Ki in test [1] of 28 nM. In addition, the “Inverse Agonism: % inhibition” value in test [2] is −28%.

In turn, `Cc1cc(N2CC[C@@H](N3CCC[C@@H]3C)C2)ccc1N1CCC2(CCOCC2)C1=O` [Example 30] came in with a Ki in test [1] of 4.3 nM. For the same compound, in test [2], the “Inverse Agonism: % inhibition” value is on record as −29%.

With `Cc1cc(N2CCC(N3CCCC3C)C2)ccc1N1CCC2(CCOCC2)C1=O` (stereo not drawn) [Example 31, 2-[2-Methyl-4-(2-methyl-[1,3′]bipyrrolidinyl-1′-yl)-phenyl]-8-oxa-2-aza-spiro[4.5]decan-1-one], affinity in test [1] was put at a Ki of 6.2 nM. In test [2], the “Inverse Agonism: % inhibition” value is recorded as −28%.

In turn, `Cc1cc(N2CC[C@@H](N3CCC[C@H]3C)C2)ccc1N1CCCC2(CCOCC2)C1=O` [Example 32, 2-[2-Methyl-4-((2R,3′R)-2-methyl-[1,3′]bipyrrolidinyl-1′-yl)-phenyl]-9-oxa-2-aza-spiro[5.5]undecan-1-one] registered a Ki in test [1] of 11 nM. Besides, the “Inverse Agonism: % inhibition” value in test [2] is on record as −15%.

As for `Cc1cc(N2CC[C@@H](N3CCC[C@@H]3C)C2)ccc1N1CCCC2(CCOCC2)C1=O` [Example 33], the affinity in test [1], expressed as Ki, was 1.4 nM. Also, the “Inverse Agonism: % inhibition” value in test [2] is listed as −19%.

The compound `C[C@@H]1CCCN1[C@H]1CCN(c2ccc(N3CCCC4(CCOCC4)C3=O)cc2)C1` [Example 34, 2-[4-((2R,3′S)-2-Methyl-[1,3′]bipyrrolidinyl-1′-yl)-phenyl]-9-oxa-2-aza-spiro[5.5]undecan-1-one] displayed a Ki in test [1] of 1.7 nM. In addition, in test [2], the “Inverse Agonism: % inhibition” value is −12%.

Compound `C[C@@H]1CCCN1[C@@H]1CCN(c2ccc(N3CCCC4(CCOCC4)C3=O)cc2)C1` [Example 35, 2-[4-((2R,3′R)-2-Methyl-[1,3′]bipyrrolidinyl-1′-yl)-phenyl]-9-oxa-2-aza-spiro[5.5]undecan-1-one] displayed a Ki in test [1] of 0.7 nM. The “Inverse Agonism: % inhibition” value in test [2] is on record as −13%.

As for `C[C@H]1CCCN1[C@@H]1CCN(c2ccc(N3CCCC4(CCOCC4)C3=O)cc2)C1` [Example 36, 2-[4-((2S,3′R)-2-Methyl-[1,3′]bipyrrolidinyl-1′-yl)-phenyl]-9-oxa-2-aza-spiro[5.5]undecan-1-one], the inhibitory constant (Ki) in test [1] was determined as 0.26 nM. Besides, the “Inverse Agonism: % inhibition” value in test [2] was −10%.

In turn, `C[C@H]1CCCN1[C@H]1CCN(c2ccc(N3CCCC4(CCOCC4)C3=O)cc2)C1` [Example 37, 2-[4-((2S,3′S)-2-Methyl-[1,3′]bipyrrolidinyl-1′-yl)-phenyl]-9-oxa-2-aza-spiro[5.5]undecan-1-one] registered a Ki in test [1] of 0.1 nM. For the same compound, the “Inverse Agonism: % inhibition” value in test [2] is −20%.

In test [1], `C[C@@H]1CCCN1[C@H]1CCN(c2ccc(N3CCCC4(CCOCC4)C3=O)c(F)c2)C1` [Example 38, 2-[2-Fluoro-4-((2R,3′S)-2-Methyl-[1,3′]bipyrrolidinyl-1′-yl)-phenyl]-9-oxa-2-aza-spiro[5.5]undecan-1-one] returned a Ki of 1.3 nM. In addition, the “Inverse Agonism: % inhibition” value in test [2] is −22%.

Consider `C[C@@H]1CCCN1[C@@H]1CCN(c2ccc(N3CCCC4(CCOCC4)C3=O)c(F)c2)C1` [Example 39, 2-[2-Fluoro-4-((2R,3′R)-2-Methyl-[1,3′]bipyrrolidinyl-1′-yl)-phenyl]-9-oxa-2-aza-spiro[5.5]undecan-1-one], for which, in test [1], the affinity corresponds to a Ki of 0.75 nM. In addition, in test [2], the “Inverse Agonism: % inhibition” value is recorded as −13%.

`C[C@H]1CCCN1[C@@H]1CCN(c2ccc(N3CCCC4(CCOCC4)C3=O)c(F)c2)C1` [Example 40, 2-[2-Fluoro-4-((2S,3′R)-2-Methyl-[1,3′]bipyrrolidinyl-1′-yl)-phenyl]-9-oxa-2-aza-spiro[5.5]undecan-1-one] came in with a Ki in test [1] of 0.09 nM. Also, the “Inverse Agonism: % inhibition” value in test [2] is listed as −18%.
